The values that follow come from article PMC9434784, “Synthesis and In Vitro Evaluation of a Set of 6-Deoxy-6-thio-carboranyl D-Glucoconjugates Shed Light on the Substrate Specificity of the GLUT1 Transporter” (ACS Omega, 2022).

Where two headings read alike, the source gives them in different places.

Experiment [1] deals with T1, GLUT1 (Homo sapiens, UniProt P11166).
T1 construct: host or cells: CAL 27 human squamous carcinoma cells
T1 sequence (P11166 1-492): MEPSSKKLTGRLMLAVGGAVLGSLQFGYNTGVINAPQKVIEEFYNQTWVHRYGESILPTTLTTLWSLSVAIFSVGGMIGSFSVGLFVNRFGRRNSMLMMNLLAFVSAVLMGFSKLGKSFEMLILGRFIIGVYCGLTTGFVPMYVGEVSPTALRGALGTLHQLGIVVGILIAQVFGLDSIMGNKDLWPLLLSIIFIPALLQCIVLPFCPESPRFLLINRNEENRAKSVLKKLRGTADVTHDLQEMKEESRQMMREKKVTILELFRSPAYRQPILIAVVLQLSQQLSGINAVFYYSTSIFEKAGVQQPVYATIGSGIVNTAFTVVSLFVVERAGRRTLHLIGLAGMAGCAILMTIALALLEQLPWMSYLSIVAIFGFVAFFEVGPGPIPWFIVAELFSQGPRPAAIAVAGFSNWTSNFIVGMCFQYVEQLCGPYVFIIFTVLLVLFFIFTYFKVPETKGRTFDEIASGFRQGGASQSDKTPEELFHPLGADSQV
In words: GLUT1 affinity cis-inhibition assay against [14C]-D-glucose in CAL 27 cells. As to conditions: competition with 1.8 μM [14C]-D-glucose, 5 min, room temperature, 0.1–1800 μM. It counts as cell-based. From the text: From the drug development perspective, it is central to understand the molecular interactions between the ligand and the transporter. For example, in a BNCT context, the selectivity and success of the treatments are directly related to the preferential uptake of boron-10 enriched delivery agents by cancer cells. In our case, the GLUT1 transporter, which is overexpressed on various cancers, is responsible for the uptake process. The clinical validity and therapeutic utility of the approach stem from the “Warburg effect”.[7],[8] Cancer cells have an impaired D-glucose metabolism while simultaneously displaying a high proliferation rate and energy demand. Together, these factors contribute to an increased D-glucose uptake in cancer cells compared to healthy cells and offer a basis for pursuing a GLUT1-targeting strategy in BNCT. Based on the available tumor imaging data obtained through the use of FDG,[38] head and neck cancers represent a promising target for our approach. Therefore, we employed the human squamous carcinoma cell line CAL 27 as a suitable model for the in vitro assessment of GLUT1-targeting delivery agents. In addition to being a relevant head and neck cancer cell line of human origin, the GLUT1-transporter has been indicated to play a key role in the aberrant growth of CAL 27 cells.[39],[40] In our previous work, we validated the GLUT1-function, quantified the GLUT1-expression, and developed a cis-inhibition assay for determining the relative affinities of GLUT1-targeting delivery agents to GLUT1 in the CAL 27 cell line.[13],[14] To allow comparison of the results of the present study to our earlier ones, we used the same protocols herein. The fully deprotected glucoconjugates 1–4 were subjected to the cis-inhibition assay, i.e., they were forced to compete for the transporter against radiolabeled [^14C]-D-glucose in order to assess their targeting capabilities from a functional point of view. A high GLUT1 affinity, i.e., a low IC50 value, is characteristic of delivery agents that are able to target the transporter in the presence of the natural substrate D-glucose in a biological milieu. […] Large differences in the IC50 values were thus noted. […] These two delivery agents display acceptable GLUT1-targeting capabilities. […] While the trend is clear, the results are surprising. The question that arises is as follows: which underlying factors contribute to these notable deviations uncovered through the experimental cis-inhibition assay?
The GLUT1 affinity assay was performed according to our previously developed protocol.[13],[14] […] Liquid scintillation counter (MicroBeta^2 counter, PerkinElmer, Waltham, MA, USA) was used to assess the radioactivity, and the IC50 values were determined by nonlinear regression analysis.

Experiment [2] deals with CAL 27 cell line. The experiment in a line: Cellular uptake (boron delivery capacity) by ICP-MS boron quantification. As to conditions: for behaviour at GLUT1 inferred from affinity and uptake profiles: CAL 27; for Vmax (boron uptake, Michaelis–Menten) / Km: 10–400 μM; for Km: read-out: Km (boron uptake, Michaelis–Menten). It counts as cell-based, human. As for the experimental part: The uptake studies were performed according to our recently reported protocol.[13],[14] […] This, however, is not a concern, as the cell-killing effect caused by the thermal neutron beam in actual BNCT treatments has a destructive radius reminiscent to the diameter of a single cell (5–9 μm in biological tissue).[46] In the uptake studies, the concentration range 10–400 μM was screened. The incubation times 5, 30, and 120 min were chosen due the optimal performance of [^14C]-D-glucose under these conditions. Since inductively-coupled plasma mass spectrometry (ICP-MS) is somewhat insensitive when it comes to quantification of the boron content, thoroughly washed cells from four wells were combined and digested before being subjected to the analysis. […] However, we noticed that the Km values were consistently higher with the S-linked carboranyl species compared to the O-linked carboranylmethyl species.[14] The higher Km value may imply that there are additional transport mechanisms involved in the uptake of the S-series delivery agents. More work is needed to ascertain these factors. Regardless, the different Km values may likewise indicate that a greater concentration, which may no longer be clinically relevant, would be required for the S-series species to reach Vmax.
The cells were first pre-incubated. The substrates were then added in different concentration (10–400 μM in 250 μL of HBSS) and incubation was continued for 5, 30, and 120 min at room temperature. Ice-cold buffer was used to quench the reaction at the set time points. Washing and lysis was carried out as mentioned above. A combined sample was prepared in an Eppendorf tube by addition of cell lysate from four wells. The combined sample was centrifuged at +4 °C. From the supernatant of every sample, 800 μL was taken and digested in 1.0 mL of HNO3 (TraceMetal grade, Fisher Chemical) for 24 h. Milli-Q water (USF Elga Purelab Ultra) was added until the sample volume was 10 mL, and the boron contents were assessed in triplicates by ICP-MS. More details on the ICP method can be found in our earlier work.[13],[14] PerkinElmer Syngistix Data Analysis Software was used for data analysis and GraphPad Prism v.5.03 software (GraphPad Software, San Diego, Ca, USA) for statistical analysis.

With “6-Deoxy-6-thio-(1,2-dicarba-closo-dodecaboran-1-yl)-D-glucopyranose [Compound 1]”, in experiment [1], the IC50 (as a rule, the concentration that gives 50% inhibition) came to 127 µM. Besides, the “behaviour at GLUT1 inferred from affinity and uptake profiles” value in experiment [2] was “seems to act as a GLUT1-antagonist”. In addition, in experiment [2] (CAL 27, 5 min incubation), the “Vmax (boron uptake, Michaelis–Menten)” value was 1.34 μg B/mg protein and the Km (usually the substrate concentration at which the rate is half of its maximum) is 1830 µM. In experiment [2] (CAL 27, 30 min incubation), the “Vmax (boron uptake, Michaelis–Menten)” value is recorded as 0.83 μg B/mg protein and the Michaelis constant (Km) was determined as 556 µM.

Compound “6-Deoxy-6-thio-(1,2-dicarba-closo-dodecaboran-9-yl)-D-glucopyranose [Compound 3]” yielded an IC50 in experiment [1] of 982 µM. Moreover, in experiment [2] (CAL 27, 5 min incubation), the “Vmax (boron uptake, Michaelis–Menten)” value was determined as 0.03 μg B/mg protein and the Michaelis constant (Km) is 110 µM.

Turning to “6-Deoxy-6-thio-(1,7-dicarba-closo-dodecaboran-1-yl)-D-glucopyranose [Compound 2]”, in experiment [1], the IC50 was determined as 121 µM. In addition, the “behaviour at GLUT1 inferred from affinity and uptake profiles” value in experiment [2] is given as “enters the cells through the transporter at an acceptable rate”. Besides, in experiment [2] (CAL 27, 10–400 μM, 5, 30 and 120 min), the “boron delivery capacity compared to the other delivery agents screened (BPA, BSH)” value is given as “fivefold higher delivery capacity”. Moreover, the “Vmax (boron uptake, Michaelis–Menten)” value in experiment [2] (CAL 27, 5 min incubation) is reported as 6.60 μg B/mg protein; in experiment [2] (CAL 27, 30 min incubation), 1.80 μg B/mg protein; in experiment [2] (CAL 27, 120 min incubation) it was 2.19 μg B/mg protein. In addition, the Km in experiment [2] (CAL 27, 5 min incubation) worked out at 1810 µM; in experiment [2] (CAL 27, 30 min incubation) it was 237 µM; in experiment [2] (CAL 27, 120 min incubation) it was 208 µM.

The compound `OC[C@H]1OC(O)[C@H](O)[C@@H](O)[C@@H]1O` (stereo partly drawn) [D-glucose, reference compound] registered an IC50 in experiment [1] of over 1000 µM.
